Laboratory results published in patent US5854015A, “Method of making pure 3R-3'R stereoisomer of zeaxanthin for human ingestion” (priority 1995, dated 1998).

Experiments:
[1] = in vivo
Source text: Birds in the C+ group are fed a standard commercial diet which contains several carotenoids; this diet also contains synthetic alpha-tocopherol (Vitamin E) as an additive.

[2] = cited from earlier work
[3] = macular degeneration; cited from earlier work
[4] = of all known carotenoids; cited from earlier work
[5] = per-weight basis; cited from earlier work
[6] = Feeding of F. multivorum cell paste to birds or fish; format: in vivo; details: cell paste fed directly
Source text: Although this option has not yet been fully evaluated, it is possible that the Flavobacterium multivorum cells themselves, in intact form and possibly even in a viable state, may be suitable for direct ingestion by humans. A substantial number of human foods (including cheese, yogurt, beer, etc.) contain viable or killed-but-intact microbial cells, and there is no known pathogenicity associated with the F. multivorum cells isolated by Applied Food Biotechnology, Inc. They were isolated from a relatively cold artesian waterway, and since they are adapted to living in cold water, they cannot survive or reproduce well at temperatures inside the human body. […] When fed directly in the form of a cell paste to animals such as birds or fish, these cells appear to be well-suited as delivery vehicles for zeaxanthin.

chickens = details: cited from earlier work
[7] = Pasteurization of cell culture by heating; format: physicochemical; details: stabilizers added
Method: After the stabilizing compounds are added, a bacterial cell culture can be pasteurized by heating to 55° C. for 25 minutes.
After the stabilizing compounds are added, the cell culture is pasteurized by heating to 55° C. for 25 to 50 minutes.

CC1=C(/C=C/C(C)=C/C=C/C(C)=C/C=C/C=C(C)/C=C/C=C(C)/C=C/C2=C(C)C(=O)CCC2(C)C)C(C)(C)CCC1=O [Canthaxanthin]
Concentration in retina [1]: 1.7 ng per mg retina | crystal formation in retinal tissue ([2]; in vivo): can cause crystal formation which can destroy retinal cells and tissue | deposition in human skin ([2]; in vivo): is deposited in human skin | displacement of lutein in retinal tissue ([2]; in vivo): can displace lutein | retinal toxicity ([2]; ingested): shown to cause retinal maculopathy

CC1=C[C@H](O)CC(C)(C)[C@H]1/C=C/C(C)=C/C=C/C(C)=C/C=C/C=C(C)/C=C/C=C(C)/C=C/C1=C(C)C[C@@H](O)CC1(C)C [Lutein]
Concentration in retina [1]: 1.0 ng per mg retina

CC1=C(/C=C/C(C)=C/C=C/C(C)=C/CO)C(C)(C)CCC1 [Retinol (Vit. A)]
Concentration in retina [1]: 5.8 ng per mg retina | benefits in the retina [3]: very limited

CC(C=CC=C(C)C=CC1=C(C)CCCC1(C)C)=CC=CC=C(C)C=CC=C(C)C=CC1C(C)=CC(O)CC1(C)C (stereo not drawn) [alpha-Cryptoxanthan]
Concentration in retina [1]: 1.4 ng per mg retina

Cc1c(C)c2c(c(C)c1O)CCC(C)(CCCC(C)CCCC(C)CCCC(C)C)O2 (stereo not drawn) [alpha-Tocopherol]
Concentration in retina [1]: 15.6 ng per mg retina | benefits in the retina [3]: very limited

Cc1c(O)cc2c(c1C)O[C@](C)(CCC[C@H](C)CCC[C@H](C)CCCC(C)C)CC2 [gamma-Tocopherol]
Concentration in retina [1]: 5.0 ng per mg retina

CC(C)=CCC/C(C)=C/C=C/C(C)=C/C=C/C(C)=C/C=C/C=C(C)/C=C/C=C(C)/C=C/C=C(\C)CCC=C(C)C [lycopene]
singlet oxygen quenching [4]: best singlet oxygen quencher of all known carotenoids

CC1=C(/C=C/C(C)=C/C=C/C(C)=C/C=C/C=C(C)/C=C/C=C(C)/C=C/C2=C(C)C[C@@H](O)CC2(C)C)C(C)(C)C[C@H](O)C1 [zeaxanthin, 3,3'-dihydroxy-β-β-carotene]
effectiveness in imparting color relative to lutein [5]: several times more effective | Concentration in retina [1]: 4.7 ng per mg retina | absorption and tissue deposition after feeding [6]: absorbed into the bloodstream and deposited into various tissues at expected and appropriate tissue locations | coloration of chickens fed cells and their zeaxanthin pigment (chickens; cells ATCC 21081 and 21588, U.S. Pat. No. 3,891,504): caused suitable coloration | coloring potency relative to lutein (chickens; per-weight basis, skin and egg yolks): 2-3 times | damage to zeaxanthin on pasteurization ([7]; 55° C. for 25 to 50 minutes): without damaging the zeaxanthin | damage to zeaxanthin on pasteurization ([7]; 55° C. for 25 minutes): without damaging the zeaxanthin

CC1=C(/C=C/C(C)=C/C=C/C(C)=C/C=C/C=C(C)/C=C/C=C(C)/C=C/C2=C(C)CCCC2(C)C)C(C)(C)CCC1 [β-Carotene]
Detection of β-Carotene in retinas [1]: No β-Carotene was detected | benefits in the retina [3]: very limited
